{"source": "patent US4310660A", "about": "“Lincomycin compounds” (The Upjohn Company, priority 1980, dated 1982)", "assay_type_in_all_cases": "cell-based", "key": {"Staphylococcus aureus": {"test_system": "Staphylococcus aureus", "assay": "MIC vs. aerobic bacteria, microplate broth-dilution (BHI)", "settings": "Staphylococcus aureus, read-out: Minimal Inhibitory Concentration (MIC)"}, "Diplococcus pneumoniae": {"test_system": "Diplococcus pneumoniae", "assay": "MIC vs. aerobic bacteria, microplate broth-dilution (BHI)", "settings": "Streptococcus pneumoniae, read-out: Minimal Inhibitory Concentration (MIC)", "procedure": "(§1) The Minimal Inhibitory Concentration (MIC's) of both compounds Vs. aerobic bacteria is determined using a standard microplate broth-dilution method. Brain Heart Infusion (BHI-Difco) broth medium is used, and the plates are incubated at 37° C. for 20 hrs."}, "Escherichia coli": {"test_system": "Escherichia coli", "assay": "MIC vs. aerobic bacteria, microplate broth-dilution (BHI)", "settings": "UC45, UC 45, read-out: Minimal Inhibitory Concentration (MIC)", "procedure": "as §1"}, "Klebsiella pneumoniae": {"test_system": "Klebsiella pneumoniae", "assay": "MIC vs. aerobic bacteria, microplate broth-dilution (BHI)", "settings": "Klebsiella pneumoniae, UC58, UC 58; read-out: Minimal Inhibitory Concentration (MIC)", "procedure": "as §1"}, "Proteus vulgaris": {"test_system": "Proteus vulgaris", "assay": "MIC vs. aerobic bacteria, microplate broth-dilution (BHI)", "settings": "Proteus vulgaris, UC93, UC 93; read-out: Minimal Inhibitory Concentration (MIC)", "procedure": "as §1"}, "Pseudomonas aeruginosa": {"test_system": "Pseudomonas aeruginosa", "assay": "MIC vs. aerobic bacteria, microplate broth-dilution (BHI)", "settings": "UC95, UC 95, read-out: Minimal Inhibitory Concentration (MIC)", "procedure": "as §1"}, "[1]": {"test_system": "Salmonella schottmuelleri", "assay": "MIC vs. aerobic bacteria, microplate broth-dilution (BHI)", "settings": "Salmonella, UC126; UC 126; read-out: Minimal Inhibitory Concentration (MIC)", "procedure": "as §1"}, "[2]": {"test_system": "Staphylococcus epidermidis", "assay": "MIC vs. aerobic bacteria, microplate broth-dilution (BHI)", "procedure": "as §1"}, "Streptococcus faecalis": {"test_system": "Streptococcus faecalis", "assay": "MIC vs. aerobic bacteria, microplate broth-dilution (BHI)", "settings": "Enterococcus faecalis, UC694, UC 694; read-out: Minimal Inhibitory Concentration (MIC)", "procedure": "as §1"}, "Streptococcus pyogenes": {"test_system": "Streptococcus pyogenes", "assay": "MIC vs. aerobic bacteria, microplate broth-dilution (BHI)", "settings": "UC152, UC 152, read-out: Minimal Inhibitory Concentration (MIC)", "procedure": "as §1"}, "Streptococcus viridans": {"test_system": "Streptococcus viridans", "assay": "MIC vs. aerobic bacteria, microplate broth-dilution (BHI)", "procedure": "as §1"}, "Bacteroides fragilis": {"test_system": "Bacteroides fragilis", "assay": "MIC vs. anaerobic bacteria, agar dilution"}, "Bacteroides distasonis": {"test_system": "Bacteroides distasonis", "assay": "MIC vs. anaerobic bacteria, agar dilution", "settings": "Parabacteroides distasonis, UC6518, UC 6518, read-out: Minimal Inhibitory Concentration (MIC)"}, "[3]": {"test_system": "Bacteroides melaninogenicus", "assay": "MIC vs. anaerobic bacteria, agar dilution", "settings": "UC6326, UC 6326, read-out: Minimal Inhibitory Concentration (MIC)"}, "Clostridium cadaveris": {"test_system": "Clostridium cadaveris", "assay": "MIC vs. anaerobic bacteria, agar dilution", "settings": "UC6510, UC 6510, read-out: Minimal Inhibitory Concentration (MIC)"}, "Clostridium bifermentans": {"test_system": "Clostridium bifermentans", "assay": "MIC vs. anaerobic bacteria, agar dilution", "settings": "Paraclostridium bifermentans, UC6507, UC 6507, read-out: Minimal Inhibitory Concentration (MIC)"}, "Eubacterium limosum": {"test_system": "Eubacterium limosum", "assay": "MIC vs. anaerobic bacteria, agar dilution", "settings": "UC6515, UC 6515, read-out: Minimal Inhibitory Concentration (MIC)"}, "Eubacterium lentum": {"test_system": "Eubacterium lentum", "assay": "MIC vs. anaerobic bacteria, agar dilution", "settings": "Eggerthella lenta, UC6522, UC 6522, read-out: Minimal Inhibitory Concentration (MIC)"}, "[4]": {"test_system": "Peptococcus asaccharolyticus", "assay": "MIC vs. anaerobic bacteria, agar dilution", "settings": "Peptoniphilus asaccharolyticus, UC6214, UC 6214, read-out: Minimal Inhibitory Concentration (MIC)"}}, "note": "Counter-ions that a name gives are not always drawn. Like-named read-outs stand apart in the source and are kept apart here."}
{"smiles": "CC[C@@H]1CCN[C@H](C(=O)N[C@@H]([C@H]2O[C@H](SC)[C@H](O)[C@@H](O)[C@H]2O)[C@H](C)Cl)C1", "note": "[U-57,930E, 4-Cis-ethyl-1-pipecolic acid amide of 7-Cl-MTL.HCl]", "values": [{"measurement": "MIC", "setting": "Staphylococcus aureus; UC76, S. aureus UC 76", "value": 0.1, "unit": "µg/mL"}, {"measurement": "MIC", "setting": "Staphylococcus aureus; UC570, S. aureus UC 570", "value": 0.39, "unit": "µg/mL"}, {"measurement": "MIC", "setting": "Staphylococcus aureus; UC571, S. aureus UC 571", "value": 0.78, "unit": "µg/mL"}, {"measurement": "MIC", "setting": "Staphylococcus aureus; UC746, S. aureus UC 746", "value": 0.05, "unit": "µg/mL"}, {"measurement": "MIC", "setting": "Staphylococcus aureus; UC6675, S. aureus UC 6675", "value": 0.39, "unit": "µg/mL"}, {"measurement": "MIC", "setting": "Staphylococcus aureus; UC6685, S. aureus UC 6685", "value": "> 25", "unit": "µg/mL"}, {"measurement": "MIC", "setting": "Staphylococcus aureus; UC6686, S. aureus UC 6686", "value": 0.2, "unit": "µg/mL"}, {"measurement": "MIC", "setting": "Staphylococcus aureus; UC6687, S. aureus UC 6687", "value": 0.2, "unit": "µg/mL"}, {"measurement": "MIC", "setting": "Staphylococcus aureus; UC6688, S. aureus UC 6688", "value": "> 25", "unit": "µg/mL"}, {"measurement": "MIC", "setting": "Staphylococcus aureus; UC6689, S. aureus UC 6689", "value": 0.78, "unit": "µg/mL"}, {"measurement": "MIC", "setting": "Staphylococcus aureus; UC6690, S. aureus UC 6690", "value": 0.2, "unit": "µg/mL"}, {"measurement": "MIC", "setting": "Staphylococcus aureus; UC6691, S. aureus UC 6691", "value": 0.2, "unit": "µg/mL"}, {"measurement": "MIC", "setting": "Staphylococcus aureus; UC6692, S. aureus UC 6692", "value": "> 25", "unit": "µg/mL"}, {"measurement": "MIC", "setting": "Staphylococcus aureus; UC6693, S. aureus UC 6693", "value": 0.78, "unit": "µg/mL"}, {"measurement": "MIC", "setting": "Staphylococcus aureus; UC6694, S. aureus UC 6694", "value": "> 25", "unit": "µg/mL"}, {"measurement": "MIC", "setting": "Staphylococcus aureus; UC6695, S. aureus UC 6695", "value": 0.39, "unit": "µg/mL"}, {"measurement": "MIC", "setting": "Staphylococcus aureus; UC6696, S. aureus UC 6696", "value": 0.39, "unit": "µg/mL"}, {"measurement": "MIC", "setting": "Diplococcus pneumoniae; UC41, Diplococcus pneumoniae I, UC 41", "value": "≤ 0.012", "unit": "µg/mL"}, {"measurement": "MIC", "setting": "Diplococcus pneumoniae; UC3213, Diplococcus pneumoniae II, UC 3213", "value": "≤ 0.012", "unit": "µg/mL"}, {"measurement": "MIC", "setting": "Escherichia coli", "value": "> 50", "unit": "µg/mL"}, {"measurement": "MIC", "setting": "Klebsiella pneumoniae", "value": "> 50", "unit": "µg/mL"}, {"measurement": "MIC", "setting": "Proteus vulgaris", "value": "> 50", "unit": "µg/mL"}, {"measurement": "MIC", "setting": "Pseudomonas aeruginosa", "value": "> 50", "unit": "µg/mL"}, {"measurement": "MIC", "setting": "[1]", "value": "> 50", "unit": "µg/mL"}, {"measurement": "MIC", "setting": "[2]; UC719, UC 719, read-out: Minimal Inhibitory Concentration (MIC)", "value": 0.2, "unit": "µg/mL"}, {"measurement": "MIC", "setting": "[2]; UC3389, UC 3389, read-out: Minimal Inhibitory Concentration (MIC)", "value": 0.2, "unit": "µg/mL"}, {"measurement": "MIC", "setting": "Streptococcus faecalis", "value": 6.25, "unit": "µg/mL"}, {"measurement": "MIC", "setting": "Streptococcus pyogenes", "value": "≤ 0.012", "unit": "µg/mL"}, {"measurement": "MIC", "setting": "Streptococcus viridans; UC153, UC 153, read-out: Minimal Inhibitory Concentration (MIC)", "value": 0.05, "unit": "µg/mL"}, {"measurement": "MIC", "setting": "Streptococcus viridans; UC871, UC 871, read-out: Minimal Inhibitory Concentration (MIC)", "value": "≤ 0.012", "unit": "µg/mL"}, {"measurement": "MIC", "setting": "Bacteroides fragilis; UC6428, UC 6428, read-out: Minimal Inhibitory Concentration (MIC)", "value": 0.25, "unit": "µg/mL"}, {"measurement": "MIC", "setting": "Bacteroides fragilis; UC6513, UC 6513, read-out: Minimal Inhibitory Concentration (MIC)", "value": 0.12, "unit": "µg/mL"}, {"measurement": "MIC", "setting": "Bacteroides fragilis; UC6862, UC 6862, read-out: Minimal Inhibitory Concentration (MIC)", "value": 15.6, "unit": "µg/mL"}, {"measurement": "MIC", "setting": "Bacteroides fragilis; UC6864, UC 6864, read-out: Minimal Inhibitory Concentration (MIC)", "value": 2, "unit": "µg/mL"}, {"measurement": "MIC", "setting": "Bacteroides distasonis", "value": "≤ 0.03", "unit": "µg/mL"}, {"measurement": "MIC", "setting": "[3]", "value": 0.06, "unit": "µg/mL"}, {"measurement": "MIC", "setting": "Clostridium cadaveris", "value": 0.06, "unit": "µg/mL"}, {"measurement": "MIC", "setting": "Clostridium bifermentans", "value": 0.06, "unit": "µg/mL"}, {"measurement": "MIC", "setting": "Eubacterium limosum", "value": 2, "unit": "µg/mL"}, {"measurement": "MIC", "setting": "Eubacterium lentum", "value": 1, "unit": "µg/mL"}, {"measurement": "MIC", "setting": "[4]", "value": 0.25, "unit": "µg/mL"}]}
